Results as given in patent US20070167510A1, “Methods for inhibiting osteoclastogenesis” (priority 2006, published 2007).

Tests used:
MM.1S cells = test: Proliferation assay (3H-thymidine incorporation), MM.1S; assay type: cell-based, human; conditions: 48 hours
Experimental: (§1) DNA synthesis was measured by ^3H-thymidine incorporation (3H-TdR; NEN Products, Zaventem, Belgium). Cells were pulsed with ^3H-thymidine (1 μCi/well) during the last 8 hours of culture, harvested onto glassfibre filter mats (Wallac, Gaithersburg, Md.) with an automatic cell harvester (Tomtec Harvester 960 MachIII), and counted using Wallac TriLux Beta plate scintillation counter. All experiments were performed in triplicate.

[1] = system: MIG (monokine induced by IFN-gamma); test: Bio-plex cytokine assay of osteoclast culture supernatants: MIG; assay type: cell-based, human; conditions: three weeks treatment
Experimental: (§2) Supernatants collected on day 5, 9, 12, 16 and 21 were analyzed for expression of IL-1α, IL-1β, IL-2, IL-3, IL-4, IL-5, IL-6, IL-7, IL-8, IL-9, IL-10, IL-13, IL-15, IL-17, IL-12p40, IFNα, IFNγ, TNF-α, TNFR-I, TNFR-II, G-CSF, GM-CSF, MCP-1, MIP-1α, MIP-1β, MIG, IP-10, EOTAXIN, RANTES, DR5, EGF, VEGF, FGF-b, and HGF by Bio-plex Cytokine Assay (BIO-RAD Laboratories, USA).

RAW 264.7 cells [2] = test: Cellular viability of RAW 264.7 cells; assay type: cell-based, mouse; conditions: data not shown
IFN-γ = test: Bio-plex cytokine assay of osteoclast culture supernatants: IFN-γ; assay type: cell-based, human; conditions: three weeks treatment
Experimental: as §2

[3] = system: non-adherent mononuclear bone marrow cells from multiple myeloma patients; test: Osteoclast formation assay, MM patient bone marrow; assay type: cell-based, human
Experimental: (§3) Non-adherent mononuclear cells (10^5 cells/well) from either healthy donor or multiple myeloma patients, as well as purified human CD34^+ cells, were seeded in 96-well multi-plates at 100 μl/well in α-MEM medium containing 20% horse serum, 10 ng/ml M-CSF and 50 ng/ml RANKL. […] Half media change was carried out twice a week.
(§4) The culture was incubated for a total of 3 weeks at 37° C. in an incubator of 5% CO2-air. OCL formation was assessed by staining with monoclonal antibody 23c6, which recognizes the CD51/61 dimer on the osteoclast vitronectin receptor (generously provided by Michael Horton, Rayne Institute, Bone and Mineral Center, London, UK), using a Vectastatin-ABC-AP kit (Vector Laboratories, Inc. Burlingame, Calif.). The 23c6^+ multinucleated osteoclasts containing 3 or more nuclei per osteoclast were scored using an inverted microscope. For RAW 264.7 cells, OCL differentiation assay was carried out in 96-well plates. […] Half media change was performed every 2-3 days by replacing with fresh medium containing RANKL with or without tested drugs. Cells were fixed and stained with TRAP-staining kit (Sigma-Aldrich) according to the manufacturer's instructions. TRAP-positive multinuclear cells (>3 nuclei) were counted under the inverted microscope.

RPMI-8226 cells = test: Proliferation assay (3H-thymidine incorporation), RPMI-8226; assay type: cell-based, human; conditions: RPMI-1822 / RPMI cells as printed, 48 hours
Experimental: as §1

OPM2 cells = test: Proliferation assay (3H-thymidine incorporation), OPM2; assay type: cell-based, human; conditions: 48 hours
Experimental: as §1

[4] = system: MM cell lines and freshly isolated primary MM cells; conditions: Yasui H et al., 2005; cited from earlier work
[5] = system: non-adherent mononuclear bone marrow cells from healthy donors; assay type: cell-based
Experimental: as §3, §4

MC-42 cells = test: Osteoblast mineralization (von Kossa); assay type: cell-based, mouse; conditions: 48 hours, 5.0 mM inorganic phosphate
Description: (§5) Cells were then harvested for luciferase and ALP (alkaline phosphatase) activity assay. Luciferase and ALP activity were normalized to total protein content of the sample (Xiao G et al. (1997) Mol. Endocrinol. 11:1103-13). […] Samples were then stained using the Von Kossa method (Xiao G et al. (1998) J. Biol. Chem. 273:32988-94).

[6] = system: CFU-GM colony cells (osteoclast precursors); test: Osteoclast formation assay with purified CFU-GM cells; assay type: cell-based, human
[7] = system: bone marrow cells from healthy donor on whale dentin slices; test: Osteoclastic bone resorption on dentin slices; assay type: cell-based, human; conditions: 3 weeks
Experimental: Bone marrow cells from healthy donor (2×10^5 cells/well) were seeded on whale dentin slices in 96-well multi-plates at 100 μl/well in α-MEM medium containing 20% horse serum. In addition, 10 ng/ml M-CSF and 50 ng/ml RANKL were added. Half media changes were performed twice a week with fresh media. […] Culture was continued for 3 weeks at 37° C. in an incubator of 5% CO2-air. After 3 weeks, dentin slices were stained with TRAP staining to confirm the osteoclast formation. Then, bone resorption lacunae were stained with hematoxylin. Pit area was quantified by using the public domain NIH ImageJ program. Fixed small representative areas on dentin slices selected and the mean resorption areas were determined.

[8] = system: MC-42 cells (MC3T3-E1 pre-osteoblastic); test: Osteoblast differentiation: ALP activity; assay type: cell-based, mouse; conditions: SDX-101 75 μM, SDX-308 7.5 μM, 24 hours
Description: as §5

[9] = system: CD34+ cells (hematopoietic progenitors); test: Colony assays in methylcellulose; assay type: cell-based, human; conditions: 14 days
Experimental: Methocult GF H4434 contained the following hematopoietic growth factors: recombinant human (rh) Erythropoietin 3 U/ml, rh SCF 50 ng/ml, rh granulocyte-macrophage colony-stimulating factor (GM-CSF) 10 ng/ml, and rh IL-310 ng/ml as well as Methylcellulose (1%), Fetal Bovine Serum 30%, Bovine Serum Albumin (1%), 2-Mercaptoethanol ([…]), and L-glutamine (2 mM). Cells were incubated in at 37° C., 5% CO2 with 95% humidity for 14-16 days. Formation and relative distribution of burst forming unit-erythroid (BFU-E), colony forming unit-macrophages (CFU-M) and colony forming unit-granulocyte, macrophage (CFU-GM) colonies were evaluated by scoring under an inverted microscope. Each colony experiment was carried out in triplicate.

MIP-1α = test: Bio-plex cytokine assay of osteoclast culture supernatants: MIP-1α; assay type: cell-based, human; conditions: day four; controls 12,000
Description: […] of IL-1α, IL-1β, IL-2, IL-3, IL-4, IL-5, IL-6, IL-7, IL-8, IL-9, IL-10, IL-13, IL-15, IL-17, IL-12p40, IFNα, IFNγ, TNF-α, TNFR-I, TNFR-II, G-CSF, GM-CSF, MCP-1, MIP-1α, MIP-1β, MIG, IP-10, EOTAXIN, RANTES, DR5, EGF, VEGF, FGF-b, and HGF by Bio-plex Cytokine Assay (BIO-RAD Laboratories, USA).

IκBα = test: Western blot of IκBα phosphorylation and degradation, MM.1S; assay type: cell-based, human
Experimental: For detection of p65 translocation, cellular nuclear and cytoplasmic extracts were prepared with Nuclear and Cytoplasmic Extraction Reagents (Pierce, Rockford, Ill.). Cell lysates (20-40 μg) were subjected to 10% sodium dodecyl sulfate-polyacrylamide gel electrophoresis and transferred to PVDF membrane (Millipore, Danvers, Mass.). The blots were probed with anti-p65, anti-phospho p65, anti-IκB-α, anti-phospho IκB-α, or anti-phospho IKK-γ (all from Cell Signaling, Beverly, Mass.), and beta-actin antibody (Amersham, Piscataway, N.J.). Immune complexes were detected using enhanced chemiluminescence (Amersham).

RAW 264.7 cells [10] = test: RANKL-induced OCL differentiation of RAW 264.7 cells (TRAP); assay type: cell-based, murine; conditions: 5 days, RANKL 50 ng/ml, SDX-101 75 μM, SDX-308 7.5 μM
Experimental: as §4

SMILES: CCc1cccc2c3c([nH]c12)[C@@](CC)(CC(=O)O)OCC3 [SDX-101, R-etodolac]
- concentration at which DNA synthesis (thymidine incorporation) was significantly inhibited (MM.1S cells): 10 µM
- MIG secretion in osteoclast formation assays [1]: significantly decreased
- cellular viability, drug alone (RAW 264.7 cells [2]): no significant effects
- IFN-γ secretion in osteoclast formation assays (IFN-γ): significantly decreased
- inhibition of OCL formation, time course of drug addition ([3]; MM patient cells, SDX-101 75 μM, SDX-308 7.5 μM, 3 weeks vs first/last 1 or 2 weeks): significantly higher when drug was added during the entire 3 weeks
- inhibition of RANK-L/M-CSF-induced human osteoclastogenesis ([3]; MM patient cultures, 21-day assay, SDX-101 30 to 100 μM, SDX-308 3 to 10 μM): dose-dependent inhibition
- concentration at which DNA synthesis (thymidine incorporation) was significantly inhibited (RPMI-8226 cells): 100 µM
- concentration at which DNA synthesis (thymidine incorporation) was significantly inhibited (OPM2 cells): 100 µM
- apoptosis [4]: induces apoptosis
- doses exhibiting inhibition of OCL formation ([5]; 3 weeks, RANKL 50 ng/ml, M-CSF 10 ng/ml): over 50 μM
- cell death during the 3 week OCL formation assay ([5]; any doses tested): No cell death was observed
- inhibition of OCL formation, time course of drug addition ([5]; healthy donor cells, SDX-101 75 μM, SDX-308 7.5 μM, 3 weeks vs first/last 1 or 2 weeks): significantly higher when drug was added during the entire 3 weeks
- inhibition of RANK-L/M-CSF-induced human osteoclastogenesis ([5]; healthy donor cultures, 21-day assay, SDX-101 30 to 100 μM, SDX-308 3 to 10 μM): dose-dependent inhibition
- mineralization of osteoblasts (von Kossa staining) (MC-42 cells): did not inhibit mineralization
- osteoclast inhibition by time point of drug addition ([6]; first 1, 2 or 3 weeks or last 1, 2 or 3 weeks): no differences in osteoclast inhibition
- osteoclast numbers formed from osteoclast progenitor cells ([6]; purified CFU-GM cells, 21 days): significantly decreased osteoclast numbers
- measured bone resorption area ([7]; 75 μM, untreated control 8.6): 1.3 mm^2
- bone resorption ([7]; SDX-101 75 μM, SDX-308 7.5 μM): inhibited significantly
- ALP activity [8]: did not decrease the ALP activity
- number of the CFU colonies formed compared to untreated cells ([9]; CD34+ cells): not significantly different
- interference with hematopoietic lineage commitment ([9]; SDX-101 30, 50, 75 μM, SDX-308 1, 5, 7.5 μM): none of the doses tested for both SDX derivatives interferes
- MIP-1α in supernatant (MIP-1α): 6,000 pg/ML
- TNF-induced IκBα phosphorylation and degradation (IκBα): minor or no obvious effect
- RANKL-induced OCL formation from RAW 264.7 cells (RAW 264.7 cells [10]): suppressed
